This note sets out measurements from a melting point compilation (Tetko et al.; mined from patent text by program, amines drawn as free bases though some values may be those of a salt).

Where only a bound is given, the exact number is not on record here.

Broadly, the melting point is the temperature of the solid-liquid transition. `CCCc1c(C(=O)C2CC2)c2ccc(C(N)=O)cc2n1Cc1ccccc1Cl` came in with a melting point of 162 to 164 °C.
In the case of `O=C(Cl)N1CCC(Oc2cccc3c2CCC3)C1` (stereo not drawn), the melting point is 128 to 129 °C.
In turn, `COC(=O)Nc1cn2ccc(Sc3ccccc3)cc2n1` registered a melting point of 221 to 223 °C.
The same measure for `COC(=O)Cc1ccnc(NC=O)n1`: 103 to 107 °C.
Turning to `CC1(C2CCC3C4CCC5CC(O)CCC5(C)C4C(OC(=O)CCl)CC32C)OCCO1` (stereo not drawn), the melting point was in the range of 194 to 202 °C.
For `N#Cc1cncc(C2OC(CO)C(O)C2O)c1` (stereo not drawn), the melting point lay within 169 to 171 °C.
The molecule `Cc1cc(NC(=O)C(=O)N2C(C)CCCC2C)cc(C)c1S(=O)(=O)C[N+](=O)[O-]` (stereo not drawn) showed a melting point of 192 to 193 °C.
The molecule `CCCCN1CCN(Cc2nc(-c3ccc4c(c3)Nc3ccccc3S4)cs2)CC1` registered a melting point of 188 to 190 °C.
`CC(C)(C)OC(=O)[C@@H]1CSC(C2CCCCC2)N1C(=O)CNC(=O)Nc1cccc(CC(=O)O)c1` (stereo partly drawn) came in with a melting point of 115 °C.
The value for `CC(Oc1cccc(Oc2c(Cl)cc(C(F)(F)F)cc2Cl)c1)C(=O)O` (stereo not drawn) was 120 °C.
With `CCCCC(Cc1ccc(OCCNC(=O)c2ccc(OC(C)C)nc2)cc1)C(=O)O` (stereo not drawn), the melting point was in the range of 117 to 118 °C.
Molecule `CC(=O)NC1Cc2ccc(C(=O)CCCCCl)cc2C1` (stereo not drawn) came in with a melting point of 106 to 108 °C.
In turn, `COC(=O)Cc1ccccc1N(Cc1ccc(C)cc1)c1c(Cl)cccc1Cl` gave a melting point of 113 to 114 °C.
For `CCOC(=O)CCCOc1cccc(C=Cc2ccc3ccc(Br)cc3n2)c1`, the melting point is 61 to 63 °C.
In turn, `CCN(CC)CCC1CCN(C(=O)N2c3ccccc3C(=O)Nc3cccnc32)C1` (stereo not drawn) gave a melting point of 137 to 138 °C.
In the case of `CP(=O)(CCC(=O)O)CCC(=O)O`, the melting point was 172 to 174 °C.
Consider `CCCCOC(=O)CN(C(=O)C(F)(F)F)C(NC(C)C)P(=O)(O)OSCC` (stereo not drawn), for which the melting point lay within 64 to 65 °C.
Regarding `O=C(Nc1nc(-c2ccccc2)c(-c2nc3ccccc3c(=O)n2-c2ccccc2Cl)s1)c1ccccc1`, the melting point lay in the range of 212 to 214 °C.
`CCN1CCc2ccc(Nc3ncc(Cl)c(NCCCC(=O)NC)n3)cc2CC1`: the melting point was determined as 135 °C.
As to `O=C(O)c1cc(=O)c2cc([N+](=O)[O-])ccc2s1`, the melting point is 220 °C.
In turn, `COc1cc2nc(SCc3ncc(C)c(N(C)C)c3Cl)[nH]c2cc1OC` showed a melting point of 120 to 122 °C.
As for `CN(CC(=O)[C@@H](N)Cc1ccccc1)C(=O)N1CCC[C@H]1C(=O)O`, the melting point was 174 to 175 °C.
Turning to `CC=CC=CC(=O)Nc1ccc2ncnc(Nc3cccc(Br)c3)c2c1`, the melting point lay within 258 to 260 °C.
On to `COC(=N)c1ccc(-c2ccccc2[N+](=O)[O-])o1`, for which the melting point was 107 to 108 °C.
In turn, `COCC(=O)NCC1CCC(Nc2nc3c(s2)CCCc2ccc(F)cc2-3)CC1` (stereo not drawn) had a melting point of 63 to 65 °C.
The value for `CC(C)(C)OC(=O)[C@@H]1CCCN1C(=O)Cl` was 89 to 92 °C; that for `CCCCc1nc2cnc3cccnc3c2n1CCCCNC(=O)OC(C)(C)C` was 96 to 98 °C; that for `Cc1nnc(-c2ccc3ncn(C4CCN(S(C)(=O)=O)CC4)c3c2)o1` was 233 to 234 °C.
Molecule `CCOC(=O)C1=C(C)NC(COC)=C(C(=O)OCC)C1c1ccc(S(C)(=O)=O)cc1` (stereo not drawn) yielded a melting point of 156 to 158 °C.
On to `CC(O)CN1N=CCCC1c1ccc(Cl)c(Cl)c1` (stereo not drawn), for which the melting point lay in the range of 75 to 77 °C.
For the molecule `COC(=O)c1nc(SC)n(-c2ccccc2)c1C(=O)OC`, the melting point was 121 to 122 °C.
In turn, `Oc1cccc2c1C[C@@H](O)[C@H](O)C2` (relative stereo) came in with a melting point of 183 to 184 °C.
As for `Cn1c(COc2ccc(C=C3SC(=O)NC3=O)cc2)nc2cccnc21`, the melting point is 279 to 281 °C.
In turn, `O=S(=O)(O)c1cccc2c1ccc1nc(O)c(O)nc12` returned a melting point of more than 300 °C.
The molecule `Nc1cc(I)ccc1Nc1cccc(-c2cncnc2)c1` had a melting point of 166 to 169 °C.
Molecule `O=C1Nc2ccc(C(F)(F)F)cc2C1c1ncnc2nn(C3CCCC3)cc12` (stereo not drawn) registered a melting point of 292 to 293 °C.
On to `CCCCCC(C)C(C)c1cc(O)c2c3c(c(=O)oc2c1)SCC3` (stereo not drawn), for which the melting point was in the range of 165 to 166 °C.
Consider `COc1ccc2ccc(NC(=O)C3CC3)nc2n1`, for which the melting point worked out at 170 °C.
On to `CCCCC1OC(=O)c2cc(NC3CCCC3)ccc21` (stereo not drawn), for which the melting point lay within 79 to 81 °C.
`CCCn1nc2c(N)nc3ccccc3c2c1CC(C)(C)S(C)(=O)=O` showed a melting point of 202 to 204 °C.
With `CC(C)(C)OC(=O)Cn1ccc2cc(NC(=O)CC34CC5CC(CC(C5)C3)C4)ccc21`, the melting point was 199 °C.
On to `Oc1c(I)cc(-c2c3ccccc3cc3sc4ccccc4c23)cc1I`, for which the melting point lay within 213 to 214 °C.
For the molecule `COCCc1nc2c(N)nc3ccccc3c2n1CCCCNC(=O)c1cnc2ccccc2c1`, the melting point was in the range of 114 to 116 °C.
The same measure for `COc1cccc(-c2nnc(-c3ccoc3)o2)c1`: 70 to 71 °C; for `CCCC12CCC3=C(CCc4cc(O)ccc43)C1CCC2O` (stereo not drawn): 210 to 218 °C; for `Cn1c(=O)c(-c2c(Cl)cccc2Cl)cc2cnc(NCCCN3CCOCC3)nc21`: 140 to 142 °C.
On to `NC(=O)c1[nH]cnc1OC(=O)c1ccccc1C(=O)OCc1ccccc1`, for which the melting point was 122 to 124 °C.
As to `CCCCCCCC(=O)c1ccc(CCC(CC)(CCOC(C)=O)NC(C)=O)cc1` (stereo not drawn), the melting point was in the range of 66 to 69 °C.
For the molecule `CCOC(=O)Cc1nc2cc(Cl)ccc2o1`, the melting point lay in the range of 90 to 91 °C.
The value for `CCCCCCC(CCC(=O)OO)CC(=O)OO` (stereo not drawn) was 51.5 to 52.5 °C; that for `C#CCN1C(=O)COc2cc(F)c([N+](=O)[O-])cc21` was 105 to 107 °C; that for `CSc1nc(F)cc(NN)n1` was 153 to 154 °C.
Take `O=C(Cn1c(-c2ccc(F)cc2)ncc(NC(=O)OCc2ccccc2)c1=O)N[C@@H](Cc1ccccc1)C(=O)C(F)(F)C(=O)NCc1ccccc1`: the melting point lay in the range of 185 to 186 °C.
The molecule `CCOC(=O)C1=CNC2=C(C(=S)Nc3ccccc3)CCC(C)N2C1=O` (stereo not drawn) came in with a melting point of 173 to 175 °C.
The value for `CC(C)(CCc1ccccc1)NCC(O)c1ccc(O)c(C(N)=O)c1` (stereo not drawn) was 154 °C.
As to `O=C(Nc1c([N+](=O)[O-])cnn1-c1c(Cl)cc(C(F)(F)F)c(Cl)c1Cl)C(F)(F)F`, the melting point fell in the range of 136 to 137 °C.
`CCOc1ccc(C=CC(C)=O)cc1OC` came in with a melting point of 95 to 97 °C.
Turning to `CCCCCCOC(C)c1ccc(-c2ccc(OCc3ccccc3)cc2)cc1` (single isomer, unassigned; (+)), the melting point is 61 to 63 °C.
The molecule `CC#CC1(O)CCC2C3CCC4=CC(=O)CCC4C3C(C(F)F)CC21C` (stereo not drawn) showed a melting point of 191 to 193 °C.
Regarding `C=CCNc1c(CO)cnc2cn(C(C)(C)OC)nc12`, the melting point lay within 152 to 154 °C.
Molecule `CCC(=O)Nc1cccc(C(=O)C=CN(C)C)c1` displayed a melting point of 106 to 108 °C.
The value for `CC(NC(=S)NCC(COC(=O)C(C)(C)C)Cc1ccc(C(C)(C)C)cc1)c1ccc(NS(C)(=O)=O)c(F)c1` (stereo not drawn) was 78 °C; that for `CN1CCCN(C(=O)c2ccc3n2Cc2ccccc2N(C(=O)c2ccc(C4CCCCC4)cc2)C3)CC1` was 133 to 136 °C.
